Measured values from patent US20060069132A1, “Azolecarboxamide herbicides” (priority 2004, published 2006).

Columns and labels:
downy bromegrass = test: Test C postemergence herbicide test; type: in vivo, Bromus tectorum
How it was run: (§1)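 Visual rating, 0 (no effect) to 100 (complete control), vs. controls at 12–14 d in greenhouse. Postemergence: 1–4-leaf plants, 2–18 cm. Paddy: flooded, barnyardgrass at 2-leaf stage.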

windgrass = test: Test C postemergence herbicide test; type: in vivo, Apera spica-venti
How it was run: as §1

blackgrass = test: Test C postemergence herbicide test; type: in vivo, Alopecurus myosuroides
How it was run: as §1

annual bluegrass = test: Test E pre-/postemergence herbicide test; type: in vivo, Poa annua; settings: Preemergence
Description: (§2) Seeds of plant species selected from bipinnate beggarticks (Bidens bipinnata L.), hairy beggarticks (Bidens radiata Thuill.), bermudagrass (Cynodon dactylon (L.) Pers.), Surinam grass (Urochloa decumbens (Staph) R. D. Webster, previously named Brachiaria decumbens Stapf), large crabgrass (Digitaria sanguinalis (L.) Scop.), green foxtail (Setaria viridis (L.) P. Beauv.), goosegrass (Eleusine indica (L.) Gaertn.), johnsongrass (Sorghum halepense (L.) Pers.), kochia (Kochia scoparia (L.) Schrad.), pitted morningglory (Ipomoea lacunosa L.), purple nutsedge (Cyperus rotundus L.), common ragweed (Ambrosia elatior L.), mustard (Brassica nigra (L.) W. D. J. Koch), guineagrass (Panicum maximum Jacq.), dallisgrass (Paspalum dilatatum Poir.), barnyardgrass (Echinochloa crus-galli (L). P. Beauv.), southern sandbur (Cenchrus echinatus L.), common sowthistle (Sonchus oleraceous L.), prickly sida (Sida spinosa L.), Italian ryegrass (Lolium multiflorum Lam.), common purslane (Portulaca oleracea L.), broadleaf signalgrass (Brachiaria platyphylla (Griseb.) Nash), common groundsel (Senecio vulgaris L.), common chickweed (Stellaria media (L.) Vill/Cyr.), tropical spiderwort (Commelina benghalensis L.), annual bluegrass (Poa annua L.), downy bromegrass (Bromus tectorum L.), itchgrass (Rottboellia cochinchinensis (L.) L.f.), quackgrass (Elytrigia repens (L.) Nevski), Canada horseweed (Erigeron Canadensis L.), field bindweed (Convolvulus arvensis L.), spotted spurge (Euphorbia maculata L.), common mallow (Malva sylvestris (=s silvestris) L.), and Russian thistle (Salsola kali L. ssp. Ruthenica (Iljin) Soo) were planted and treated preemergence with test chemicals formulated in a non-phytotoxic solvent mixture which included a surfactant.
(§3) At the same time, plants selected from these weed species were treated with postemergence applications of some of the test chemicals formulated in the same manner. Plants ranged in height from 2 to 18 cm (1- to 4-leaf stage) for postemergence treatments. Treated plants and controls were maintained in a greenhouse for 12 to 14 days, after which time all species were compared to controls and visually evaluated. Plant response ratings, summarized in Table E, are based on a scale of 0 to 100 where 0 is no effect and 100 is complete control. A dash (-) response means no test result.

dallisgrass = test: Test E pre-/postemergence herbicide test; type: in vivo, Paspalum dilatatum; settings: Preemergence
Description: as §2, §3

common ragweed = test: Test E pre-/postemergence herbicide test; type: in vivo, Ambrosia elatior; settings: Preemergence
Description: as §2, §3

quackgrass = test: Test E pre-/postemergence herbicide test; type: in vivo, Elytrigia repens; settings: Preemergence
Description: as §2, §3

itchgrass = test: Test E pre-/postemergence herbicide test; type: in vivo, Rottboellia cochinchinensis; settings: Preemergence
Description: as §2, §3

common mallow = test: Test E pre-/postemergence herbicide test; type: in vivo, Malva sylvestris; settings: Preemergence
Description: as §2, §3

johnsongrass = test: Test E pre-/postemergence herbicide test; type: in vivo, Sorghum halepense; settings: Preemergence
Description: as §2, §3

tropical spiderwort = test: Test E pre-/postemergence herbicide test; type: in vivo, Commelina benghalensis; settings: Preemergence
Description: as §2, §3

Surinam grass = test: Test E pre-/postemergence herbicide test; type: in vivo, Urochloa decumbens; settings: Preemergence
Description: as §2, §3

bermudagrass = test: Test E pre-/postemergence herbicide test; type: in vivo, Cynodon dactylon; settings: Preemergence
Description: as §2, §3

[1] = Postemergence, 250 g ai/ha, scale 0 to 100, 0 no effect, 100 complete control
[2] = postemergence, 125 g ai/ha, scale 0 to 100
[3] = postemergence, 31 g ai/ha, scale 0 to 100
[4] = postemergence, 62 g ai/ha, scale 0 to 100
[5] = Postemergence, 500 g ai/ha, scale 0 to 100
[6] = 250 g ai/ha, scale 0 (no effect) to 100 (complete control)
[7] = 500 g ai/ha, scale 0 (no effect) to 100 (complete control)
[8] = Postemergence, 500 g ai/ha, scale 0 to 100, 0 no effect, 100 complete control

CCn1nc(C(C)(C)C)cc1C(=O)Nc1cccc(C(=O)NCC2CC2)c1 [Compound 62]
Plant response rating, Bromegrass, Downy (downy bromegrass; [1]): 30 | Plant response rating, Bromegrass, Downy (downy bromegrass; [2]): 20 | Plant response rating, Bromegrass, Downy (downy bromegrass; [3]): 10 | Plant response rating, Bromegrass, Downy (downy bromegrass; [4]): 20 | Plant response rating, Windgrass (windgrass; [1]): 50 | Plant response rating, Windgrass (windgrass; [2]): 40 | Plant response rating, Windgrass (windgrass; [4]): 30 | Blackgrass plant response rating (blackgrass; Postemergence, 250 g ai/ha, scale 0 to 100): 40 | Plant response rating, Blackgrass (blackgrass; [2]): 40 | Plant response rating, Blackgrass (blackgrass; [3]): 20 | Plant response rating, Blackgrass (blackgrass; [4]): 40

CCCCOc1cccc(NC(=O)c2cc(C(C)(C)C)nn2CC)c1 [Compound 137]
Bromegrass, Downy plant response rating (downy bromegrass; [5]): 40 | Plant response rating, Bromegrass, Downy (downy bromegrass; [1]): 20 | Plant response rating, Bromegrass, Downy (downy bromegrass; [2]): 20 | Plant response rating, Bromegrass, Downy (downy bromegrass; [4]): 10 | Windgrass plant response rating (windgrass; [5]): 60 | Plant response rating, Windgrass (windgrass; [1]): 50 | Plant response rating, Windgrass (windgrass; [2]): 50 | Plant response rating, Windgrass (windgrass; [4]): 30 | Blackgrass plant response rating (blackgrass; [5]): 60 | Plant response rating, Blackgrass (blackgrass; [1]): 40 | Plant response rating, Blackgrass (blackgrass; [2]): 40 | Plant response rating, Blackgrass (blackgrass; [4]): 40

CCN1N=C(C(C)(C)C)CC1C(=O)Nc1cc(C(=O)N(C)C)ccc1F (stereo not shown) [Compound 268, N-[5-[(dimethylamino)carbonyl]-2-fluorophenyl]-3-(1,1-dimethylethyl)-1-ethyl-4,5-dihydro-1H-pyrazole-5-carboxamide]
Plant response rating, Bluegrass (annual bluegrass; 62 g ai/ha, scale 0 to 100): 80 | Plant response rating, Bluegrass (annual bluegrass; 125 g ai/ha, scale 0 to 100): 95 | Plant response rating, Bluegrass (annual bluegrass; [6]): 95 | Plant response rating, Bluegrass (annual bluegrass; [7]): 95 | Plant response rating, Dallisgrass (dallisgrass; 62 g ai/ha, scale 0 to 100): 70 | Plant response rating, Dallisgrass (dallisgrass; 125 g ai/ha, scale 0 to 100): 80 | Plant response rating, Dallisgrass (dallisgrass; [6]): 85 | Plant response rating, Dallisgrass (dallisgrass; [7]): 85 | Plant response rating, Bromegrass, Downy (downy bromegrass; [1]): 40 | Plant response rating, Bromegrass, Downy (downy bromegrass; [2]): 30 | Plant response rating, Bromegrass, Downy (downy bromegrass; [3]): 0 | Plant response rating, Bromegrass, Downy (downy bromegrass; [4]): 10 | Plant response rating, Ragweed (common ragweed; 62 g ai/ha, scale 0 to 100): 50 | Plant response rating, Ragweed (common ragweed; 125 g ai/ha, scale 0 to 100): 60 | Plant response rating, Ragweed (common ragweed; [6]): 100 | Plant response rating, Ragweed (common ragweed; [7]): 100 | Plant response rating, Windgrass (windgrass; [1]): 100 | Plant response rating, Windgrass (windgrass; [2]): 60 | Plant response rating, Windgrass (windgrass; [4]): 30 | Plant response rating, Quackgrass (quackgrass; 62 g ai/ha, scale 0 to 100): 40 | Plant response rating, Quackgrass (quackgrass; 125 g ai/ha, scale 0 to 100): 85 | Plant response rating, Quackgrass (quackgrass; [6]): 95 | Plant response rating, Quackgrass (quackgrass; [7]): 95 | Plant response rating, Itchgrass (itchgrass; 62 g ai/ha, scale 0 to 100): 50 | Plant response rating, Itchgrass (itchgrass; 125 g ai/ha, scale 0 to 100): 60 | Plant response rating, Itchgrass (itchgrass; [6]): 75 | Plant response rating, Itchgrass (itchgrass; [7]): 95 | Plant response rating, Mallow (common mallow; 62 g ai/ha, scale 0 to 100): 50 | Plant response rating, Mallow (common mallow; 125 g ai/ha, scale 0 to 100): 50 | Plant response rating, Mallow (common mallow; [6]): 80 | Plant response rating, Mallow (common mallow; [7]): 90 | Plant response rating, Johnsongrass (johnsongrass; 62 g ai/ha, scale 0 to 100): 30 | Plant response rating, Johnsongrass (johnsongrass; 125 g ai/ha, scale 0 to 100): 50 | Plant response rating, Johnsongrass (johnsongrass; [6]): 50 | Plant response rating, Johnsongrass (johnsongrass; [7]): 80 | Plant response rating, Spiderwort (tropical spiderwort; 125 g ai/ha, scale 0 to 100): 70 | Plant response rating, Spiderwort (tropical spiderwort; [6]): 85 | Plant response rating, Spiderwort (tropical spiderwort; [7]): 90 | Plant response rating, Blackgrass (blackgrass; [1]): 60 | Plant response rating, Blackgrass (blackgrass; [2]): 45 | Plant response rating, Blackgrass (blackgrass; [3]): 0 | Plant response rating, Blackgrass (blackgrass; [4]): 30 | Plant response rating, Surinam Grass (Surinam grass; 125 g ai/ha, scale 0 to 100): 90 | Plant response rating, Surinam Grass (Surinam grass; [7]): 100 | Plant response rating, Bermudagrass (bermudagrass; 62 g ai/ha, scale 0 to 100): 60 | Plant response rating, Bermudagrass (bermudagrass; 125 g ai/ha, scale 0 to 100): 90 | Plant response rating, Bermudagrass (bermudagrass; [6]): 95 | Plant response rating, Bermudagrass (bermudagrass; [7]): 100

CCOC(=O)c1cccc(NC(=O)c2cc(C3(C)CC3)nn2CC)c1 [Compound 295]
Plant response rating, Bromegrass, Downy (downy bromegrass; [1]): 45 | Plant response rating, Bromegrass, Downy (downy bromegrass; [2]): 45 | Plant response rating, Bromegrass, Downy (downy bromegrass; [3]): 45 | Plant response rating, Bromegrass, Downy (downy bromegrass; [4]): 45 | Plant response rating, Windgrass (windgrass; [1]): 65 | Plant response rating, Windgrass (windgrass; [2]): 60 | Plant response rating, Windgrass (windgrass; [4]): 50 | Plant response rating, Blackgrass (blackgrass; [1]): 65 | Plant response rating, Blackgrass (blackgrass; [2]): 65 | Plant response rating, Blackgrass (blackgrass; [3]): 45 | Plant response rating, Blackgrass (blackgrass; [4]): 45

CCn1nc(C2(C)CC2)cc1C(=O)Nc1cc(C(=O)N2CC=CC2)ccc1F [Compound 301]
Bromegrass, Downy plant response rating (downy bromegrass; [5]): 40 | Plant response rating, Bromegrass, Downy (downy bromegrass; [1]): 40 | Plant response rating, Bromegrass, Downy (downy bromegrass; [2]): 40 | Plant response rating, Bromegrass, Downy (downy bromegrass; [4]): 40 | Windgrass plant response rating (windgrass; [5]): 40 | Plant response rating, Windgrass (windgrass; [1]): 35 | Plant response rating, Windgrass (windgrass; [2]): 35 | Plant response rating, Windgrass (windgrass; [4]): 35 | Blackgrass plant response rating (blackgrass; [5]): 45 | Plant response rating, Blackgrass (blackgrass; [1]): 90 | Plant response rating, Blackgrass (blackgrass; [2]): 75 | Plant response rating, Blackgrass (blackgrass; [4]): 55

CCn1nc(C(C)(C)C)cc1C(=O)Nc1cc(OC(F)(F)F)ccc1F [Compound 338]
Plant response rating, Bromegrass, Downy (downy bromegrass; [1]): 40 | Plant response rating, Bromegrass, Downy (downy bromegrass; [8]): 45 | Plant response rating, Bromegrass, Downy (downy bromegrass; [2]): 35 | Plant response rating, Bromegrass, Downy (downy bromegrass; [4]): 30 | Plant response rating, Windgrass (windgrass; [2]): 15 | Plant response rating, Windgrass (windgrass; [4]): 10 | Blackgrass plant response rating (blackgrass; [5]): 65 | Plant response rating, Blackgrass (blackgrass; [1]): 50 | Plant response rating, Blackgrass (blackgrass; [2]): 45 | Plant response rating, Blackgrass (blackgrass; [4]): 40

CCn1nc(C(C)(C)C)cc1C(=O)Nc1cccc(OS(=O)(=O)CC)c1 [Compound 408]
Plant response rating, Bromegrass, Downy (downy bromegrass; [1]): 55 | Plant response rating, Bromegrass, Downy (downy bromegrass; [8]): 55 | Plant response rating, Bromegrass, Downy (downy bromegrass; [2]): 45 | Plant response rating, Bromegrass, Downy (downy bromegrass; [4]): 40 | Plant response rating, Windgrass (windgrass; [8]): 65 | Plant response rating, Windgrass (windgrass; [2]): 45 | Plant response rating, Windgrass (windgrass; [4]): 40 | Blackgrass plant response rating (blackgrass; [5]): 70 | Plant response rating, Blackgrass (blackgrass; [1]): 65 | Plant response rating, Blackgrass (blackgrass; [2]): 50 | Plant response rating, Blackgrass (blackgrass; [4]): 40
